# Measurements reported in patent publication US5866576A, “Epoxide-containing compounds” (Cell Therapeutics, Inc., priority 1997, dated 1999).
# pIC50: −log10 of the molar value.
# Key:
# Balb/3T3 cells = test: Balb/3T3 cytotoxicity assay (BCECF-AM); assay type: cell-based; settings: FIGS. 8C, 8D
# Procedure: In conjuction with the Balb/3T3 proliferation assay conducted above, a Balb/3T3 cytotoxicity assay was conducted to determine that the inhibition on proliferation was not due to cytotoxic effects. This assay is similar to the assay decribed above except tritiated thymidine was not added and after 18-24 hours incubation with PDGF/BB and a lOuM solution of 2,7-bis-(2-carboxyethyl)-5(and-6)carboxyflouresceinacetoxymethyl ester (BCECF-AM) was added for 30 minutes at 37° C. (BCECF is a compound that when cleaved by esterases, yields a fluorescent product in viable cells only, therefore providing a measure of viable cell numbers). Following sufficient incubation, BCECF is replaced with PBS and the plate examined with flourescence in a Millipore "cytofluor." The data is compiled and plotted.
# thymocytes = test: murine thymocyte proliferation assay co-stimulated by ConA and IL-2 (FIGS. 7A-7E); assay type: cell-based, Balb/C mice; settings: Mus musculus
# Source text: This example illustrates dose response curves used to generate 50% inhibition concentrations (IC50) for inventive compounds nos. 1410, 1439, 1541, 1553, 1553S, 1560, 1565, 2548R, 2548S and 2562 in a murine thymocyte proliferation assay, co-stimulated by Concanavalin A (ConA) and interleukin-2 alpha (IL-2). ConA, used to activate the T-cell receptor (TCR), along with IL-2 co-stimulation, induces T-cell proliferation and differentiation. Thymuses, obtained from normal, female Balb/C mice, were dissociated and plated into 96-well plates at a density of 2×10^5 cells/well. ConA (0.25 mg/ml) and IL-2 (15 U/ml) were added to the wells. The cells were incubated for 4 days at 37° C. On day 4, the cells were pulsed with tritiated thymidine and incubated for an additional 4 hours. The amount of tritiated thymidine incorporated by the harvested cells was determined in a liquid scintillation counter. Doses of inventive compounds (shown in FIGS. 7A-7E) were added two hours prior to ConA and IL-2 activation. Background counts were less than 200 cpm. Results obtained, illustrate the ability of the inventive compounds to inhibit thymocyte proliferation and activation. In FIG. 7A, inventive compounds nos. […] FIG. 7B presents additional data for compound no. 1410 and 1553S in this assay. […] FIG. 7C reports assay results for inventive compounds nos. 1439, 1541, 1560 and 1565. […] FIGS. 7D and 7E illustrate assay results for inventive compounds nos. 1541, 1553, 1560 and 1565 (FIG. 7D) and 2562, […] (FIG. 7E). As is true of other inventive compounds tested, all these compounds represented in FIGS. 7D and 7E inhibit thymocyte proliferation. […] 1541, 1553, 1560, 1565, 2562, 2548R and 2548S, respectively.
structure (smiles),measurement,setting,value
"Cn1cnc2c1c(=O)n(CCCCCCCC1CO1)c(=O)n2C (stereo not drawn) [Compound 1560, 1-(8,9-Oxidononyl)-3,7-dimethylxanthine]",cytotoxic effects,Balb/3T3 cells,without exhibiting cytotoxic effects
same,pIC50,thymocytes; FIG. 7C,4.66
same,pIC50,thymocytes; FIGS. 7D and 7E,4.85
